These results are taken from patent US6608086B2, “Dihydropyridines and new uses thereof” (Synaptic Pharmaceutical Corporation, priority 1993, dated 2003).

In data set [1] the target is T1, α1A Human Adrenergic Receptor (Homo sapiens, UniProt P25100).
T1 construct: The entire coding region of α1A (1719 bp); expressed in transfected cells
T1 sequence (P25100 1-572): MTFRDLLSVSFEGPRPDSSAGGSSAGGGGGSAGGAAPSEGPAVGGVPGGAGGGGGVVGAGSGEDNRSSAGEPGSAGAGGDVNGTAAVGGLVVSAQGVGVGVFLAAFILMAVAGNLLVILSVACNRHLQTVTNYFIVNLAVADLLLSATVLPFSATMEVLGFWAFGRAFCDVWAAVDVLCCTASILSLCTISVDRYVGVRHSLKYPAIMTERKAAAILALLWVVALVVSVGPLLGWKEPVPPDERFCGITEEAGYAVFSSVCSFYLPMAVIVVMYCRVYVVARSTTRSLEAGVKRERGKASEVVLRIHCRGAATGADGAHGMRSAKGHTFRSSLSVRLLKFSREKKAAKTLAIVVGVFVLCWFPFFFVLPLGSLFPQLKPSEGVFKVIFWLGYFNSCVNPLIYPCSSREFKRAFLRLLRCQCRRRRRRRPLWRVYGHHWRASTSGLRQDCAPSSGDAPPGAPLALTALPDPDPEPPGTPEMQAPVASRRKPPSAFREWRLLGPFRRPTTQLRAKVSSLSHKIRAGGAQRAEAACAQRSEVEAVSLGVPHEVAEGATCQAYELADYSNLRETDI
Briefly: Radioligand binding, [3H]prazosin, cloned human α1A adrenergic receptor. The following applies: [3H]prazosin. As to the method:
(§1) The protocols for these experiments are given below.
(§2) These cell lines were prepared by transfecting the cloned cDNA or cloned genomic DNA or constructs containing both genomic DNA and cDNA encoding the human α-adrenergic receptors as follows:
α1A Human Adrenergic Receptor:
The cells were grown, in a controlled environment (37° C., 5% CO2), as monolayers in Dulbecco's modified Eagle's Medium (GIBCO, Grand Island, N.Y.) containing 25 mM glucose and supplemented with 10% bovine calf serum, 100 units/ml penicillin g, and 100 μg/ml streptomycin sulfate.
(§3) Radioligand Binding Assays:
(§4) Transfected cells from culture flasks were scraped into 5 ml of 5 mM Tris-HCl, 5 mM EDTA, pH 7.5, and lysed by sonication. The cell lysates were centrifuged at 1000 rpm for 5 min at 4° C., and the supernatant was centrifuged at 30,000× g for 20 min at 4° C. The pellet was suspended in 50 mM Tris-HCl, 1 mM MgCl2, and 0.1% ascorbic acid at pH 7.5. Binding of the α1 antagonist [^3H]prazosin (0.5 nM, specific activity 76.2 Ci/mmol) to membrane preparations of LM(tk−) cells was done in a final volume of 0.25 ml and incubated at 37° C. for 20 min. Nonspecific binding was determined in the presence of 10 μM phentolamine. The reaction was stopped by filtration through GF/B filters using a cell harvester.

Data set [2] addresses T2, α1B Human Adrenergic Receptor (Homo sapiens, UniProt P35368).
T2 construct: The entire coding region of α1B (1563 bp); expressed in transfected cells
T2 sequence (P35368 1-520): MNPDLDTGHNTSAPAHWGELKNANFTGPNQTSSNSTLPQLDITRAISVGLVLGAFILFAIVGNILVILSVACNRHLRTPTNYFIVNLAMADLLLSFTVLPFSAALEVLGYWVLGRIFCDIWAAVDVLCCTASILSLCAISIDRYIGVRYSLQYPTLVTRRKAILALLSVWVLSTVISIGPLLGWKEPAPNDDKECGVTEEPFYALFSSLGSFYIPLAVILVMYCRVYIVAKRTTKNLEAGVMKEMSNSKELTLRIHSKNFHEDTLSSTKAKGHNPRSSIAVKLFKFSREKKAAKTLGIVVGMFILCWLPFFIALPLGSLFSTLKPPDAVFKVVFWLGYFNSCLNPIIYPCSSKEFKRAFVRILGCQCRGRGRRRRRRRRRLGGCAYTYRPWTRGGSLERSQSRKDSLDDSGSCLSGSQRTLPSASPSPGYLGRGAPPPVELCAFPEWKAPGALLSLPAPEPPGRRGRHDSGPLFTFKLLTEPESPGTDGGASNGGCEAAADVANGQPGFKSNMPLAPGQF
The data set is described as follows: Radioligand binding, [3H]prazosin, cloned human α1B adrenergic receptor. As to the method: as §1, §2
α1B Human Adrenergic Receptor:
The construct involved ligating the full-length containing EcoRI brainstem cDNA fragment from λ ZapII into the expression vector. Stable cell lines were selected as described above.
as §3, §4

The target of data set [3] is T3, α1C Human Adrenergic Receptor (Homo sapiens, UniProt P35348).
T3 construct: The entire coding region of α1C (1401 bp); expressed in transfected cells
T3 sequence (P35348 1-466): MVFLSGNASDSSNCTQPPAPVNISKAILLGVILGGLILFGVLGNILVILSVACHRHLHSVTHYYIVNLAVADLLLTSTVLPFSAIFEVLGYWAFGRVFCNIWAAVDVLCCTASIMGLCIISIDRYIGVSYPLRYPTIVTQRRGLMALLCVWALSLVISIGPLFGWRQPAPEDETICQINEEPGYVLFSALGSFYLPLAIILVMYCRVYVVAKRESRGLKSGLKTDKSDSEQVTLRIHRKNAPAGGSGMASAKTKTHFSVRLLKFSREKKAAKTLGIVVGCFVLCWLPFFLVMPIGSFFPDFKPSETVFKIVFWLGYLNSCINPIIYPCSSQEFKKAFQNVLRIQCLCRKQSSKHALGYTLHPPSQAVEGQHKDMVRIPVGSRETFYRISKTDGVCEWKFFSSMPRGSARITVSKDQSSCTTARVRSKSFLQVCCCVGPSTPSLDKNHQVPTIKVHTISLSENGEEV
Briefly: Radioligand binding, [3H]prazosin, cloned human α1C adrenergic receptor. How it is done:
as §1, §2
α1C Human Adrenergic Receptor:
The construct involved ligating three partial overlapping fragments: a 5′, 0.6 kb HincII genomic clone, a central 1.8 EcoRI hippocampal cDNA clone, and a 3′ 0.6Kb PstI genomic clone. The hippocampal cDNA fragment overlaps with the 5′ and 3′ genomic clones so that the HincII and PstI sites at the 5′ and 3′ ends of the cDNA clone, respectively, were utilized for ligation. This full-length clone was cloned into the KpnI site of the expression vector, using the 5′ and 3′ KpnI sites of the fragment, derived from vector (i.e., pBluescript) and 3′-untranslated sequences, respectively. Stable cell lines were selected as described above.
as §3, §4

Setting [4] is: cloned human α1A receptor, LM(tk−) cell membranes, read-out: pKi alpha-1 1a (converted).
Where [5] appears, read: cloned human α1B receptor, LM(tk−) cell membranes, read-out: pKi alpha-1 1b (converted).
The mark [6] stands for this setting: cloned human α1C receptor, LM(tk−) cell membranes, read-out: pKi alpha-1 1c (converted).

Read-outs that look alike come from different tables or passages of the source.

For `CCC1=C(C(=O)NC)C(c2ccc([N+](=O)[O-])cc2)C(C(=O)NCCCN2CCC(c3ccccc3)(c3ccc(OC)cc3)CC2)=C(CC)N1` (stereo not shown) [Example 107], the melting point (in general, the temperature, or range, at which the solid turns liquid) is 133 °C (dec.). In data set [1] (setting [4]), the Ki is 0.871 µM. Further, in data set [2] (setting [5]), the Ki was 1 µM. In addition, in data set [3] (setting [6]), the Ki was 0.00589 µM.
Taken in the same sequence, the figures for `CCC1=C(C(=O)NC)C(c2ccc([N+](=O)[O-])cc2)C(C(=O)NCCCN2CCC(C(c3ccccc3)c3ccccc3)CC2)=C(CC)N1` (stereo not shown) [Example 109, 2,6-Diethyl-1,4-dihydro-5-(N-methyl) carboxamido-4-(4-nitrophenyl)-3-{-[13-(4-diphenylmethylpiperidin-1-yl)propyl]}carboxamidopyridine] were 128 °C (dec.), 0.851 µM, 0.275 µM and 0.0661 µM.
On the same counts, the results for `CCC1=C(C(=O)NC)C(c2ccc([N+](=O)[O-])cc2)C(C(=O)NCCCN2CCC(C(N)=O)(c3ccccc3)CC2)=C(CC)N1` (stereo not shown) [Example 110, 3-{N-[3-(4-Carboxamido-4-phenylpiperidin-1-yl)propyl]}carboxamido-2,6-diethyl-1,4-dihydro-5-(N-methyl)carboxamido-4-(4-nitrophenyl)pyridine] are 124 °C (dec.), 17.8 µM, 31.6 µM and 1.55 µM.
Turning to `CCNC(=O)C1=C(CC)NC(CC)=C(C(=O)NCCCN2CCC(c3ccccc3)(c3ccc(OC)cc3)CC2)C1c1ccc([N+](=O)[O-])cc1` (stereo not shown) [Example 111, 2,6-Diethyl-5-(N-ethyl)carboxamido-1,4-dihydro-3-{N-[3-(4-(4-methoxy)phenyl-4-phenylpiperidin-1-yl)propyl]}carboxamido-4-(4-nitrophenyl)pyridine], the melting point was 172 °C (dec.). The Ki in data set [1] (setting [4]) was 1.78 µM. Also, the Ki in data set [2] (setting [5]) was 0.955 µM. Besides, the Ki in data set [3] (setting [6]) was 0.00575 µM.
Regarding `CCC1=C(C(=O)O)C(c2ccc([N+](=O)[O-])cc2)C(C(=O)NCCCN2CCC(c3ccccc3)(c3ccccc3)CC2)=C(COC)N1` (stereo not shown) [Example 136, 6-Ethyl-1,4-dihydro-2-(methyloxy)methyl-4-(4-nitro)phenyl-3-(N-(3-(4,4-diphenylpiperidin-1-yl)propyl))carboxamidopyridine-5-carboxylic acid], the melting point is 120 to 125 °C (dec.). Besides, the Ki in data set [1] (setting [4]) is 0.832 µM. The Ki in data set [2] (setting [5]) is 0.407 µM. In addition, the Ki in data set [3] (setting [6]) is 0.00347 µM.
The compound `CCNC(=O)C1=C(CC)NC(COCCN=[N+]=[N-])=C(C(=O)NCCCN2CCC(c3ccccc3)(c3ccccc3)CC2)C1c1ccc([N+](=O)[O-])cc1` (stereo not shown) [Example 145, 2-((2-Azidoethyl)oxy)methyl-6-methyl-6-ethyl-5-(N-ethyl) carboxamido-1,4-dihydro-4-(4-nitro)phenyl-3-(N-(3-(4,4-diphenylpiperidin-1-yl)propyl))carboxamidopyridine] yielded a melting point of 82 to 87 °C. Moreover, the Ki in data set [1] (setting [4]) is 0.38 µM. Moreover, the Ki in data set [2] (setting [5]) was 0.324 µM. Further, the Ki in data set [3] (setting [6]) was 0.00617 µM.
On the same counts, the results for `CC1=C(C(=O)O)C(c2ccc([N+](=O)[O-])cc2)C(C(=O)NCCCN2CCC(c3ccccc3)(c3ccccc3)CC2)=C(COCCN=[N+]=[N-])N1` (stereo not shown) [Example 153, 2-((2-Azidoethyl)oxy)methyl-1,4-dihydro-6-methyl-4-(4-nitro) phenyl-3-(N-(3-(4,4-diphenylpiperidin-1-yl)propyl))carboxamidopyridine-5-carboxylic acid] are 135 °C (dec.), 1.91 µM, 0.38 µM and 0.024 µM.
`CC1=C(C(N)=O)C(c2ccc([N+](=O)[O-])cc2)C(C(=O)NCCCN2CCC(c3ccccc3)(c3ccccc3)CC2)=C(COCCN=[N+]=[N-])N1` (stereo not shown) [Example 154, 2-((2-Azidoethyl)oxy)methyl-5-carboxamido-1,4-dihydro-6-methyl-4-(4-nitro)phenyl-3-(N-(3-(4,4-diphenylpiperidin-1-yl)propyl))carboxamidopyridine]: the melting point is 90 to 95 °C (dec.). Besides, in data set [1] (setting [4]), the Ki is 0.112 µM. For the same compound, the Ki in data set [2] (setting [5]) is 0.0871 µM. In data set [3] (setting [6]), the Ki was 0.00182 µM.
Regarding `CNC(=O)C1=C(C)NC(C)=C(C(=O)NCCCN2CCC(C(=O)OC)(c3ccccc3)CC2)C1c1ccc2c(c1)OCCO2` (stereo not shown) [Example 164, 4-(3,4-Ethylenedioxyphenyl)-1,4-Dihydro-3-{N-[3-(4-methoxycarbonyl-4-phenylpiperidin-1-yl)propyl]}carboxamido-2,6-dimethyl-5-[(N-methyl)carboxamido]pyridine], the melting point is 101 to 104 °C. For the same compound, the Ki in data set [1] (cloned human receptor, LM(tk-) cell membranes, mean, read-out: PKi alpha-1 1a (converted)) was 2.95 µM. Further, the Ki in data set [2] (cloned human receptor, LM(tk-) cell membranes, mean, read-out: PKi alpha-1 1b (converted)) was 1.78 µM. The Ki in data set [3] (cloned human receptor, LM(tk-) cell membranes, mean, read-out: PKi alpha-1 1c (converted)) is 0.0229 µM.
The compound `CC1=C(C(N)=O)C(c2ccc([N+](=O)[O-])cc2)C(C(=O)NCCCN2CCC(c3ccccc3)(c3ccccc3)CC2)=C(CCCCCN)N1` (stereo not shown) [Example 169, 2-(5-Aminopentyl)-5-carboxamido-1,4-dihydro-6-methyl-4-(4-nitrophenyl)-3-{N-[3-(4,4-diphenylpiperidin-1-yl)propyl]}carboxamidopyridine] had a melting point of 75 to 78 °C. The same compound showed a Ki in data set [1] (PKi alpha-1 1a, cloned human receptor, LM(tk-) cell membranes, mean) of 0.513 µM. Further, the Ki in data set [2] (PKi alpha-1 1b, cloned human receptor, LM(tk-) cell membranes, mean) is 0.229 µM. Moreover, in data set [3] (PKi alpha-1 1c, cloned human receptor, LM(tk-) cell membranes, mean), the Ki is 0.00724 µM.
